Results on 25 compounds are retold here after patent US8735414B2 (priority 2009, dated 2014).

The IC50 is the concentration that gives 50% inhibition. What is called melting point is the temperature, or range, at which the solid turns liquid.

Data set [1] has as its system bicistronic HCV replicon (replicon RNA, GenBank Accession No. AJ242654). The data set is described as follows: HCV Replicon Assay. Format: cell-based. The conditions noted are these: Hepatitis C virus, 72 h, read-out: Replicon IC50.

The compound `Cc1cc2c(cc1F)c(C#N)c(-c1ccc(S(=O)(=O)N[C@@H](C)C(F)(F)F)cn1)n2-c1cncs1` [compound 973, 6-[3-cyano-5-fluoro-6-methyl-1-(1,3-thiazol-5-yl)-1H-indol-2-yl]-N-[(2S)-1,1,1-trifluoropropan-2-yl]pyridine-3-sulfonamide] yielded a melting point of 234 to 238 °C. In data set [1], the concentration for half-maximal inhibition (IC50) is less than 500 nM.

The compound `CCc1cc2c(cc1F)c(C#N)c(-c1ccc(S(=O)(=O)N[C@@H](C)C(F)(F)F)cn1)n2-c1ccncc1` [compound 974, 6-[3-cyano-6-ethyl-5-fluoro-1-(pyridin-4-yl)-1H-indol-2-yl]-N-[(2S)-1,1,1-trifluoropropan-2-yl]pyridine-3-sulfonamide] returned a melting point of 209 to 215 °C. Further, the IC50 in data set [1] is less than 500 nM.

As to `CCc1cc2c(cc1F)c(C#N)c(-c1ccc(S(=O)(=O)N[C@@H](C)C(F)(F)F)cn1)n2-c1cccnn1` [compound 975, 6-[3-cyano-6-ethyl-5-fluoro-1-(pyridazin-3-yl)-1H-indol-2-yl]-N-[(2S)-1,1,1-trifluoropropan-2-yl]pyridine-3-sulfonamide], the melting point was in the range of 240 to 247 °C. The IC50 in data set [1] was less than 500 nM.

`CCc1cc2c(cc1F)c(C#N)c(-c1ccc(S(=O)(=O)N[C@@H](C)C(F)(F)F)cn1)n2-c1ncc(C)cn1` [compound 976, 6-[3-cyano-6-ethyl-5-fluoro-1-(5-methylpyrimidin-2-yl)-1H-indol-2-yl]-N-[(2S)-1,1,1-trifluoropropan-2-yl]pyridine-3-sulfonamide] registered a melting point of 201 to 206 °C. Also, the IC50 in data set [1] was less than 500 nM.

`Cc1cc2c(cc1F)c(C#N)c(-c1ccc(S(=O)(=O)N[C@@H](C)C(F)(F)F)cn1)n2-c1nncs1` [compound 977, 6-[3-cyano-5-fluoro-6-methyl-1-(1,3,4-thiadiazol-2-yl)-1H-indol-2-yl]-N-[(2S)-1,1,1-trifluoropropan-2-yl]pyridine-3-sulfonamide] returned a melting point of 232 to 240 °C. In addition, the IC50 in data set [1] was less than 500 nM.

Compound `CCc1cc2c(cc1F)c(C(N)=O)c(-c1ccc(S(=O)(=O)NC(C)(C)C(F)(F)F)cn1)n2-c1ncccn1` [compound 978, 6-ethyl-5-fluoro-1-(pyrimidin-2-yl)-2-{5-[(1,1,1-trifluoro-2-methylpropan-2-yl)sulfamoyl]pyridin-2-yl}-1H-indole-3-carboxamide] returned a melting point of 261 to 269 °C. Moreover, the IC50 in data set [1] was 2000 to 5000 nM.

`CCc1cc2c(cc1F)c(C(N)=O)c(-c1ccc(S(=O)(=O)NC3(C(F)(F)F)CC3)cn1)n2-c1ncccn1` [compound 979, 6-ethyl-5-fluoro-1-(pyrimidin-2-yl)-2-(5-{[1-(trifluoromethyl)cyclopropyl]sulfamoyl}pyridin-2-yl)-1H-indole-3-carboxamide] gave a melting point of 240 to 247 °C. Moreover, in data set [1], the IC50 was in the range of 2000 to 5000 nM.

Regarding `CCc1cc2c(cc1F)c(C(N)=O)c(-c1ccc(S(=O)(=O)N[C@@H](C)C(F)(F)F)cn1)n2-c1cc(C)ccn1` [compound 980, 6-ethyl-5-fluoro-1-(4-methylpyridin-2-yl)-2-(5-{[(2S)-1,1,1-trifluoropropan-2-yl]sulfamoyl}pyridin-2-yl)-1H-indole-3-carboxamide], the melting point was in the range of 137 to 145 °C. For the same compound, the IC50 in data set [1] lay within 500 to 2000 nM.

In turn, `CCc1cc2c(cc1F)c(C(N)=O)c(-c1ccc(S(=O)(=O)N[C@@H](C)C(F)(F)F)cn1)n2-c1ccc(F)cn1` [compound 981, 6-ethyl-5-fluoro-1-(5-fluoropyridin-2-yl)-2-(5-{[(2S)-1,1,1-trifluoropropan-2-yl]sulfamoyl}pyridin-2-yl)-1H-indole-3-carboxamide] returned a melting point of 200 to 204 °C. Moreover, the IC50 in data set [1] was less than 500 nM.

Take `CCc1cc2c(cc1F)c(C(N)=O)c(-c1ccc(S(=O)(=O)N[C@@H](C)C(F)(F)F)cn1)n2-c1ccnc(C)n1` [compound 982, 6-ethyl-5-fluoro-1-(2-methylpyrimidin-4-yl)-2-(5-{[(2S)-1,1,1-trifluoropropan-2-yl]sulfamoyl}pyridin-2-yl)-1H-indole-3-carboxamide]: the melting point was 115 to 120 °C. The IC50 in data set [1] fell in the range of 2000 to 5000 nM.

Compound `CCc1cc2c(cc1F)c(C#N)c(-c1ccc(S(=O)(=O)N[C@@H](C)C(F)(F)F)cn1)n2-c1cncc(Cl)c1` [compound 983, 6-[1-(5-chloropyridin-3-yl)-3-cyano-6-ethyl-5-fluoro-1H-indol-2-yl]-N-[(2S)-1,1,1-trifluoropropan-2-yl]pyridine-3-sulfonamide] returned a melting point of 107 to 109 °C. Besides, the IC50 in data set [1] is less than 500 nM.

`Cc1cc2c(cc1F)c(C#N)c(-c1ccc(S(=O)(=O)N[C@@H](C)C(F)(F)F)cn1)n2-c1ncc(CO)s1` [compound 984, 6-{3-cyano-5-fluoro-1-[5-(hydroxymethyl)-1,3-thiazol-2-yl]-6-methyl-1H-indol-2-yl}-N-[(2S)-1,1,1-trifluoropropan-2-yl]pyridine-3-sulfonamide] showed a melting point of 180 to 185 °C. Moreover, the IC50 in data set [1] is less than 500 nM.

`Cc1cc2c(cc1F)c(C#N)c(-c1ccc(S(=O)(=O)N[C@@H](C)C(F)(F)F)cn1)n2-c1cccs1` [compound 990, 6-[3-cyano-5-fluoro-6-methyl-1-(thiophen-2-yl)-1H-indol-2-yl]-N-[(2S)-1,1,1-trifluoropropan-2-yl]pyridine-3-sulfonamide] displayed a melting point of 233 to 240 °C. Also, the half-maximal inhibitory concentration (IC50) in data set [1] is less than 500 nM.

With `Cc1cc2c(cc1F)c(C#N)c(-c1ccc(S(=O)(=O)N[C@@H](C)C(F)(F)F)cn1)n2-c1ccoc1` [compound 991, 6-[3-cyano-5-fluoro-1-(furan-3-yl)-6-methyl-1H-indol-2-yl]-N-[(2S)-1,1,1-trifluoropropan-2-yl]pyridine-3-sulfonamide], the melting point was 215 to 219 °C. In data set [1], the IC50 is less than 500 nM.

`Cc1cc2c(cc1F)c(C#N)c(-c1ccc(S(=O)(=O)N[C@@H](C)C(F)(F)F)cn1)n2-c1ccsc1` [compound 992, 6-[3-cyano-5-fluoro-6-methyl-1-(thiophen-3-yl)-1H-indol-2-yl]-N-[(2S)-1,1,1-trifluoropropan-2-yl]pyridine-3-sulfonamide] displayed a melting point of 196 to 203 °C. Further, the IC50 in data set [1] was less than 500 nM.

In the case of `CCc1cc2c(cc1F)c(C#N)c(-c1ccc(S(=O)(=O)N[C@@H](C)C(F)(F)F)cn1)n2-c1cc(Cl)ccn1` [compound 993, 6-[1-(4-chloropyridin-2-yl)-3-cyano-6-ethyl-5-fluoro-1H-indol-2-yl]-N-[(2S)-1,1,1-trifluoropropan-2-yl]pyridine-3-sulfonamide], the melting point lay in the range of 185 to 190 °C. For the same compound, the IC50 in data set [1] is less than 500 nM.

On to `CCc1cc2c(cc1F)c(C(N)=O)c(-c1ccc(S(=O)(=O)N[C@@H](C)C(F)(F)F)cn1)n2-c1cnccn1` [compound 994, 6-ethyl-5-fluoro-1-(pyrazin-2-yl)-2-(5-{[(2S)-1,1,1-trifluoropropan-2-yl]sulfamoyl}pyridin-2-yl)-1H-indole-3-carboxamide], for which the melting point was 120 to 127 °C. The IC50 in data set [1] was less than 500 nM.

As to `CCc1cc2c(cc1F)c(C(N)=O)c(-c1ccc(S(=O)(=O)N[C@@H](C)C(F)(F)F)cn1)n2-c1cccc(F)n1` [compound 995, 6-ethyl-5-fluoro-1-(6-fluoropyridin-2-yl)-2-(5-{[(2S)-1,1,1-trifluoropropan-2-yl]sulfamoyl}pyridin-2-yl)-1H-indole-3-carboxamide], the melting point lay within 230 to 233 °C. Moreover, the IC50 in data set [1] is less than 500 nM.

Take `C[C@H](NS(=O)(=O)c1ccc(-c2c(C(N)=O)c3cc(Cl)ccc3n2C2CCC2)nc1)C(F)(F)F` [compound 996, 5-chloro-1-cyclobutyl-2-(5-{[(2S)-1,1,1-trifluoropropan-2-yl]sulfamoyl}pyridin-2-yl)-1H-indole-3-carboxamide]: the melting point was in the range of 244 to 245 °C. Besides, in data set [1], the IC50 was less than 500 nM.

For `C[C@H](NS(=O)(=O)c1ccc(-c2c(C(N)=O)c3cc(F)ccc3n2C2CCC2)nc1)C(F)(F)F` [compound 997, 1-cyclobutyl-5-fluoro-2-(5-{[(2S)-1,1,1-trifluoropropan-2-yl]sulfamoyl}pyridin-2-yl)-1H-indole-3-carboxamide], the melting point lay within 224 to 227 °C. For the same compound, the IC50 in data set [1] was less than 500 nM.

`CCc1cc2c(cc1F)c(C(=O)O)c(-c1ccc(NS(=O)(=O)C(C)(C)C)cn1)n2C1CCCCC1` [compound 998, 2-{5-[(tert-butylsulfonyl)amino]pyridin-2-yl}-1-cyclohexyl-6-ethyl-5-fluoro-1H-indole-3-carboxylic acid] displayed a melting point of 224 to 226 °C. Further, in data set [1], the IC50 fell in the range of 500 to 2000 nM.

`CCc1cc2c(cc1F)c(C(N)=O)c(-c1ccc(NS(=O)(=O)C(C)(C)C)cn1)n2C1CCCCC1` [compound 999, 2-{5-[(tert-butylsulfonyl)amino]pyridin-2-yl}-1-cyclohexyl-6-ethyl-5-fluoro-1H-indole-3-carboxamide] came in with a melting point of 264 to 265 °C. The IC50 in data set [1] was less than 500 nM.

For the compound `Cc1cc2c(cc1F)c(C#N)c(-c1ccc(S(=O)(=O)N[C@@H](C)C(F)(F)F)cn1)n2-c1sccc1C` [compound 1000, 6-[3-cyano-5-fluoro-6-methyl-1-(3-methylthiophen-2-yl)-1H-indol-2-yl]-N-[(2S)-1,1,1-trifluoropropan-2-yl]pyridine-3-sulfonamide], the melting point lay within 197 to 203.8 °C. The IC50 in data set [1] was less than 500 nM.

In turn, `Cc1cc2c(cc1F)c(C#N)c(-c1ccc(S(=O)(=O)N[C@@H](C)C(F)(F)F)cn1)n2-c1cc(F)cc(F)n1` [compound 1001, 6-[3-cyano-1-(4,6-difluoropyridin-2-yl)-5-fluoro-6-methyl-1H-indol-2-yl]-N-[(2S)-1,1,1-trifluoropropan-2-yl]pyridine-3-sulfonamide] had a melting point of 190.2 to 196.8 °C. Moreover, the IC50 in data set [1] is less than 500 nM.

As for `CCc1cc2c(cc1F)c(C#N)c(-c1ccc(S(=O)(=O)N[C@@H](C)C(F)(F)F)cn1)n2-c1ccc(F)cc1` [compound 1002, 6-[3-cyano-6-ethyl-5-fluoro-1-(4-fluorophenyl)-1H-indol-2-yl]-N-[(2S)-1,1,1-trifluoropropan-2-yl]pyridine-3-sulfonamide], the melting point lay in the range of 236 to 243 °C. For the same compound, the IC50 in data set [1] was less than 500 nM.
